Experimental data taken from patent publication US20240238423A9, “TETRAHYDROISOQUINOLINE HETEROBIFUNCTIONAL BCL-XL DEGRADERS” (Treeline Biosciences, Inc., priority 2022, published 2024).

Target: T1, Human BCL-XL protein (N-terminal HiBiT tagged BCL-XL in HT1080 cells) (Homo sapiens, UniProt Q07817)
T1 construct: expressed in transfected cells; host or cells: HT-1080 (ATCC CCL-121), stably transduced with lentivirus pLV-UBC-N-HiBiT-BCL-XL-PGK-puro and selected with puromycin
Experiment: HiBiT based degradation assay
Format: cell-based
Details: HT1080 cells expressing HiBiT-BCL-XL, 24 h; for Ymin (24 h): BCL-XL degradation normalized with DMSO control; for DC50: BCL-XL degradation, read-out: EC50 (24 h)
Method in brief: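 This HiBiT degradation assay measured loss of BCL-XL in HT1080 cells that stably express an N-terminal HiBiT-BCL-XL fusion delivered by lentivirus. Cells were added to compound-spotted 384-well plates, and luminescence was read on a PHERAstar FSX reader. Signal was expressed relative to DMSO controls, curves were fitted by four-parameter logistic regression, and for hook-shaped curves the Ymin point served as the bottom plateau when calculating EC50.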

T1 sequence (Q07817 whole entry): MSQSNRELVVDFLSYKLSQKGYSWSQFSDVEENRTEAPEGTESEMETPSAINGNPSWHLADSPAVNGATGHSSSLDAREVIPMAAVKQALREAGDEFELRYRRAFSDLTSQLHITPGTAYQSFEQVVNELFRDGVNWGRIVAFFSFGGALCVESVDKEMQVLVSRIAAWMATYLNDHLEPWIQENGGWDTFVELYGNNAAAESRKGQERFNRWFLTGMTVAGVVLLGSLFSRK

| SMILES | Ymin (24 h) | DC50 [nM] |
| --- | --- | --- |
| Cc1cc(CCCOC2CCN(CC(=O)Nc3ccc4c(C5CCC(=O)NC5=O)nn(C)c4c3)CC2)ccc1-c1ccc(N2CCc3cccc(C(=O)Nc4nc5ccccc5s4)c3C2)nc1C(=O)O (centres unmarked) [Compound 291, 6-[8-(1,3-benzothiazol-2-ylcarbamoyl)-3,4-dihydro-1H-isoquinolin-2-yl]-3-[4-[3-[[1-[2-[[3-(2,6-dioxo-3-piperidyl)-1-methyl-indazol-6-yl]amino]-2-oxo-ethyl]-4-piperidyl]oxy]propyl]-2-methyl-phenyl]pyridine-2-carboxylic acid] | A (Ymin < 50%) | < 100 |
| Cc1c(CCCCC2CCN(CC(=O)Nc3ccc4c(C5CCC(=O)NC5=O)nn(C)c4c3)CC2)cccc1-c1ccc(N2CCc3cccc(C(=O)Nc4nc5ccccc5s4)c3C2)nc1C(=O)O (centres unmarked) [Compound 292, 6-[8-(1,3-benzothiazol-2-ylcarbamoyl)-3,4-dihydro-1H-isoquinolin-2-yl]-3-[3-[4-[1-[2-[[3-(2,6-dioxo-3-piperidyl)-1-methyl-indazol-6-yl]amino]-2-oxo-ethyl]-4-piperidyl]butyl]-2-methyl-phenyl]pyridine-2-carboxylic acid] | A (Ymin < 50%) | < 100 |
| Cc1c(O[C@H]2CC[C@H](CCCCN3CCN(c4ccc5c(C6CCC(=O)NC6=O)nn(C)c5c4F)CC3)CC2)cccc1-c1ccc(N2CCc3cccc(C(=O)Nc4nc5ccccc5s4)c3C2)nc1C(=O)O (some centres unmarked) [Compound 293a, 6-(8-(benzo[d]thiazol-2-ylcarbamoyl)-3,4-dihydroisoquinolin-2(1H)-yl)-3-(3-(((1s,4r)-4-(4-(4-(3-(2,6-dioxopiperidin-3-yl)-7-fluoro-1-methyl-1H-indazol-6-yl)piperazin-1-yl)butyl)cyclohexyl)oxy)-2-methylphenyl)picolinic acid] | A (Ymin < 50%) | < 100 |
| Cc1cc(CCCCC2CCN(CC(=O)Nc3ccc4c(C5CCC(=O)NC5=O)nn(C)c4c3)CC2)ccc1-c1ccc(N2CCc3cccc(C(=O)Nc4nc5ccccc5s4)c3C2)nc1C(=O)O (centres unmarked) [Compound 294] | A (Ymin < 50%) | < 100 |
| Cc1c(OCCCC2CCN(CC(=O)Nc3cc4c(cc3F)c(C3CCC(=O)NC3=O)nn4C)CC2)cccc1-c1ccc(N2CCc3cccc(C(=O)Nc4nc5ccccc5s4)c3C2)nc1C(=O)O (centres unmarked) [Compound 295, 6-[8-(1,3-benzothiazol-2-ylcarbamoyl)-3,4-dihydro-1H-isoquinolin-2-yl]-3-[3-[3-[1-[2-[[3-(2,6-dioxo-3-piperidyl)-5-fluoro-1-methyl-indazol-6-yl]amino]-2-oxo-ethyl]-4-piperidyl]propoxy]-2-methyl-phenyl]pyridine-2-carboxylic acid] | B (50% ≤ Ymin < 70%) | 100 to 1000 |
| Cc1c(O[C@H]2CC[C@H](CCCCN3CCN(c4cc5c(cc4F)c(C4CCC(=O)NC4=O)nn5C)CC3)CC2)cccc1-c1ccc(N2CCc3cccc(C(=O)Nc4nc5ccccc5s4)c3C2)nc1C(=O)O (some centres unmarked) [Compound 296a, 6-(8-(benzo[d]thiazol-2-ylcarbamoyl)-3,4-dihydroisoquinolin-2(1H)-yl)-3-(3-(((1s,4r)-4-(4-(4-(3-(2,6-dioxopiperidin-3-yl)-5-fluoro-1-methyl-1H-indazol-6-yl)piperazin-1-yl)butyl)cyclohexyl)oxy)-2-methylphenyl)picolinic acid] | A (Ymin < 50%) | < 100 |
| Cc1c(O[C@H]2CC[C@H](CCCCN3CCN(c4ccc5c(C6CCC(=O)NC6=O)nn(C)c5c4)C[C@H]3C)CC2)cccc1-c1ccc(N2CCc3cccc(C(=O)Nc4nc5ccccc5s4)c3C2)nc1C(=O)O (stereo partly drawn) [Compound 297a, 6-(8-(benzo[d]thiazol-2-ylcarbamoyl)-3,4-dihydroisoquinolin-2(1H)-yl)-3-(3-(((1s,4r)-4-(4-((2R)-4-(3-(2,6-dioxopiperidin-3-yl)-1-methyl-1H-indazol-6-yl)-2-methylpiperazin-1-yl)butyl)cyclohexyl)oxy)-2-methylphenyl)picolinic acid] | A (Ymin < 50%) | < 100 |
| Cc1c(O[C@H]2CC[C@H](CCCCN3CCN(c4ccc5c(C6CCC(=O)NC6=O)nn(C)c5c4)C[C@@H]3C)CC2)cccc1-c1ccc(N2CCc3cccc(C(=O)Nc4nc5ccccc5s4)c3C2)nc1C(=O)O (stereo partly drawn) [Compound 297b, 6-(8-(benzo[d]thiazol-2-ylcarbamoyl)-3,4-dihydroisoquinolin-2(1H)-yl)-3-(3-(((1r,4r)-4-(4-((2S)-4-(3-(2,6-dioxopiperidin-3-yl)-1-methyl-1H-indazol-6-yl)-2-methylpiperazin-1-yl)butyl)cyclohexyl)oxy)-2-methylphenyl)picolinic acid] | A (Ymin < 50%) | < 100 |
| Cc1c(OCCCC2CCN(CC(=O)Nc3ccc4c(C5CCC(=O)NC5=O)nn(C)c4c3F)CC2)cccc1-c1ccc(N2CCc3cccc(C(=O)Nc4nc5ccccc5s4)c3C2)nc1C(=O)O (centres unmarked) [Compound 302, 6-[8-(1,3-benzothiazol-2-ylcarbamoyl)-3,4-dihydro-1H-isoquinolin-2-yl]-3-[3-[3-[1-[2-[[3-(2,6-dioxo-3-piperidyl)-7-fluoro-1-methyl-indazol-6-yl]amino]-2-oxo-ethyl]-4-piperidyl]propoxy]-2-methyl-phenyl]pyridine-2-carboxylic acid] | B (50% ≤ Ymin < 70%) | < 100 |
| Cc1c(OCCCC2CCN(CCc3ccc4c(C5CCC(=O)NC5=O)nn(C)c4c3)CC2)cccc1-c1ccc(N2CCc3cccc(C(=O)Nc4nc5ccccc5s4)c3C2)nc1C(=O)O (centres unmarked) [Compound 303, 6-(8-(benzo[d]thiazol-2-ylcarbamoyl)-3,4-dihydroisoquinolin-2(1H)-yl)-3-(3-(3-(1-(2-(3-(2,6-dioxopiperidin-3-yl)-1-methyl-1H-indazol-6-yl)ethyl)piperidin-4-yl)propoxy)-2-methylphenyl)picolinic acid] | A (Ymin < 50%) | < 100 |

More lines, now with the values ahead:

| Ymin (24 h) | DC50 [nM] | SMILES |
| --- | --- | --- |
| A (Ymin < 50%) | < 100 | Cc1c(O[C@H]2CC[C@H](CCCCN3CCC(c4cccc5c(C6CCC(=O)NC6=O)nn(C)c45)CC3)CC2)cccc1-c1ccc(N2CCc3cccc(C(=O)Nc4nc5ccccc5s4)c3C2)nc1C(=O)O (some centres unmarked) [Compound 298a, 6-(8-(benzo[d]thiazol-2-ylcarbamoyl)-3,4-dihydroisoquinolin-2(1H)-yl)-3-(3-(((1s,4r)-4-(4-(4-(3-(2,6-dioxopiperidin-3-yl)-1-methyl-1H-indazol-7-yl)piperidin-1-yl)butyl)cyclohexyl)oxy)-2-methylphenyl)picolinic acid] |
| A (Ymin < 50%) | < 100 | Cc1c(O[C@H]2CC[C@H](CCCCN3CCC(c4ccc5c(C6CCC(=O)NC6=O)nn(C)c5c4)CC3)CC2)cccc1-c1ccc(N2CCc3cccc(C(=O)Nc4nc5ccccc5s4)c3C2)nc1C(=O)O (some centres unmarked) [Compound 299a, 6-(8-(benzo[d]thiazol-2-ylcarbamoyl)-3,4-dihydroisoquinolin-2(1H)-yl)-3-(3-(((1s,4r)-4-(4-(4-(3-(2,6-dioxopiperidin-3-yl)-1-methyl-1H-indazol-6-yl)piperidin-1-yl)butyl)cyclohexyl)oxy)-2-methylphenyl)picolinic acid] |
| A (Ymin < 50%) | < 100 | Cc1c(O[C@H]2CC[C@H](CCCCN3CCN(c4ccc5c(C6CCC(=O)NC6=O)nn(C)c5c4)[C@H](C)C3)CC2)cccc1-c1ccc(N2CCc3cccc(C(=O)Nc4nc5ccccc5s4)c3C2)nc1C(=O)O (stereo partly drawn) [Compound 300a, 6-(8-(benzo[d]thiazol-2-ylcarbamoyl)-3,4-dihydroisoquinolin-2(1H)-yl)-3-(3-(((1s,4r)-4-(4-((3R)-4-(3-(2,6-dioxopiperidin-3-yl)-1-methyl-1H-indazol-6-yl)-3-methylpiperazin-1-yl)butyl)cyclohexyl)oxy)-2-methylphenyl)picolinic acid] |
| A (Ymin < 50%) | < 100 | Cc1c(O[C@H]2CC[C@H](CCCCN3CCN(c4ccc5c(C6CCC(=O)NC6=O)nn(C)c5c4)[C@@H](C)C3)CC2)cccc1-c1ccc(N2CCc3cccc(C(=O)Nc4nc5ccccc5s4)c3C2)nc1C(=O)O (stereo partly drawn) [Compound 300b, 6-(8-(benzo[d]thiazol-2-ylcarbamoyl)-3,4-dihydroisoquinolin-2(1H)-yl)-3-(3-(((1r,4r)-4-(4-((3S)-4-(3-(2,6-dioxopiperidin-3-yl)-1-methyl-1H-indazol-6-yl)-3-methylpiperazin-1-yl)butyl)cyclohexyl)oxy)-2-methylphenyl)picolinic acid] |
| A (Ymin < 50%) | < 100 | Cc1c(O[C@H]2CC[C@H](CCCN3CCN(c4ccc5c(C6CCC(=O)NC6=O)nn(C)c5c4)[C@@H](C(F)(F)F)C3)CC2)cccc1-c1ccc(N2CCc3cccc(C(=O)Nc4nc5ccccc5s4)c3C2)nc1C(=O)O (stereo partly drawn) [Compound 301a, 6-(8-(benzo[d]thiazol-2-ylcarbamoyl)-3,4-dihydroisoquinolin-2(1H)-yl)-3-(3-(((1s,4r)-4-(3-((3R)-4-(3-(2,6-dioxopiperidin-3-yl)-1-methyl-1H-indazol-6-yl)-3-(trifluoromethyl)piperazin-1-yl)propyl)cyclohexyl)oxy)-2-methylphenyl)picolinic acid] |
| B (50% ≤ Ymin < 70%) | < 100 | Cc1c(O[C@H]2CC[C@H](CCCN3CCN(c4ccc5c(C6CCC(=O)NC6=O)nn(C)c5c4)[C@H](C(F)(F)F)C3)CC2)cccc1-c1ccc(N2CCc3cccc(C(=O)Nc4nc5ccccc5s4)c3C2)nc1C(=O)O (stereo partly drawn) [Compound 301b, 6-(8-(benzo[d]thiazol-2-ylcarbamoyl)-3,4-dihydroisoquinolin-2(1H)-yl)-3-(3-(((1r,4r)-4-(3-((3S)-4-(3-(2,6-dioxopiperidin-3-yl)-1-methyl-1H-indazol-6-yl)-3-(trifluoromethyl)piperazin-1-yl)propyl)cyclohexyl)oxy)-2-methylphenyl)picolinic acid] |
